PMC5585294, “A potent series targeting the malarial cGMP-dependent protein kinase clears infection and blocks transmission” (Nature Communications, 2017)
Like-named read-outs stand apart in the source and are kept apart here.

How the values were obtained:
P. falciparum 3D7 = assay: Hypoxanthine incorporation growth inhibition assay, asexual blood stage, wild-type 3D7; format: cell-based, Plasmodium falciparum; conditions: for EC50: read-out: EC50 WT
Procedure: Hypoxanthine incorporation assays[36] were performed on P. falciparum asexual blood stage parasites (wild-type 3D7 or T618Q gatekeeper mutant) to determine EC50 values for test compounds. Mixed staged parasites (primarily rings) were added to 96 well plates containing compounds at concentrations of 50 μM–0.3 nM. […] Assays were carried out in triplicate at least twice.

[1] = tested on: P. falciparum T618Q gatekeeper mutant line; assay: Hypoxanthine incorporation growth inhibition assay, asexual blood stage, T618Q gatekeeper mutant line; format: cell-based, Plasmodium falciparum; conditions: for sensitivity of gatekeeper mutant line compared with wild type (control drugs): tested in parallel on both parasite lines; for EC50 / EC90: T618Q clonal line asexual blood stage growth, 72 h, +/- s.e.m.
Procedure: We determined that a 72 h P. falciparum (clone 3D7A; obtained from Lisa Ranford Cartwright, University of Edinburgh) growth inhibition assay was necessary for full inhibition to manifest itself and that this is due, most likely to a schizont-specific action rather than a delayed death phenotype as observed for some antibiotic macrocycles. Hypoxanthine incorporation assays[36] were performed on P. falciparum asexual blood stage parasites (wild-type 3D7 or T618Q gatekeeper mutant) to determine EC50 values for test compounds. Mixed staged parasites (primarily rings) were added to 96 well plates containing compounds at concentrations of 50 μM–0.3 nM. [^3H]-Hypoxanthine was added after 48 h to a final concentration of 0.2 μCi. The radioactivity of the labeled hypoxanthine incorporated into the parasite nucleic acids over 24 h was determined relative to untreated controls using a Wallac 1450 Microbeta scintillation counter (Perkin-Elmer). Assays were carried out in triplicate at least twice.

[2] = Parallel artificial membrane permeability assay (PAMPA); format: in vitro ADME
Text: Compound mlm hlm mLogD PAMPA HepG2
name (%rem) (%rem) (nm/s) (IC50 µM)
Supplementary Table 2. Compound Properties. MLM, HLM, mLogD and PAMPA . mlm

physchem = conditions: pH 7.4
Procedure: (§1) Compound mlm hlm mLogD PAMPA HepG2 name (%rem) (%rem) (nm/s) (IC50 µM)
(§2) Supplementary Table 2. Compound Properties. MLM, HLM, mLogD and PAMPA . mlm (%rem): % of compound remaining after 30 minutes’ incubation with mouse liver microsomes; hlm (%rem): % of compound remaining after 40 minutes’ incubation with human liver microsomes; mLogD: measured LogD at pH 7.4; PAMPA: parallel artificial membrane permeability assay; HepG2: Cytotoxicity assay using HepG2 cells; n.t.: not tested.

[3] = Stability in mouse liver microsomes
Procedure: as §1, §2

PfPKG = PfPKG (Plasmodium falciparum, UniProt Q8I719); assay: Microfluidic mobility shift kinase assay, recombinant PfPKG wild type; conditions: read-out: IC50 WT; recombinant full length 6His-tagged PfPKG; ATP at KM (20 µM); +/- s.e.m.
Chain of PfPKG (Q8I719 whole entry): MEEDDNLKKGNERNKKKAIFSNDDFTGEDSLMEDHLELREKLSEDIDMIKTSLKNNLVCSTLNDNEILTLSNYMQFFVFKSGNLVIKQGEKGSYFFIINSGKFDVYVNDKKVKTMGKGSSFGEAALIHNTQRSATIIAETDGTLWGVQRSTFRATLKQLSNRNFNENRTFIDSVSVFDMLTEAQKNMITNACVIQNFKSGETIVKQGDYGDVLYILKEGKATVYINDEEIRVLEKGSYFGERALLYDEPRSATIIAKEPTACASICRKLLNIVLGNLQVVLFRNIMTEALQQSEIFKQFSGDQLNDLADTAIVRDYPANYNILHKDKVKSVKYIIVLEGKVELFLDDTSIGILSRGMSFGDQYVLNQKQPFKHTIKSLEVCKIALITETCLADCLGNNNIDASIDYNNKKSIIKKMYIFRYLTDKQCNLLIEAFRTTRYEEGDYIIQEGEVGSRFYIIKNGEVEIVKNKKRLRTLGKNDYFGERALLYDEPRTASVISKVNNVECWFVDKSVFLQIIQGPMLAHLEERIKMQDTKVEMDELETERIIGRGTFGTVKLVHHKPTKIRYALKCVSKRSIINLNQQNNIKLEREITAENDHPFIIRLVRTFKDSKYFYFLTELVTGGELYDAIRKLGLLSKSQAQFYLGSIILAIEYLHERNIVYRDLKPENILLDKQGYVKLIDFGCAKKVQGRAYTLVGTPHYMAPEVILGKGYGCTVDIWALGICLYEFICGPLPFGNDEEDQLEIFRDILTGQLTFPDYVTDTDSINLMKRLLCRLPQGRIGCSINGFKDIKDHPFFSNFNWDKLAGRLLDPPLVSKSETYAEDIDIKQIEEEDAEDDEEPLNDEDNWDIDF
Procedure: (§3) Full length PfPKG (NCBI accession code XP_001348520) with native codon usage was cloned into the pTrcHisC plasmid (Life Technologies) that includes an N-terminal His-tag as described previously[8]. […] Recombinant proteins were generated and purified using a protocol based on that described previously[8]. […] 500 ml cultures in LB Rich Broth (containing 50 μg/ml carbenicillin and 34 μg/ml chloramphenicol) were grown in a shaking incubator at 37 °C until reaching an optical density (O.D.) of 0.6–0.7. The temperature was reduced to 16 °C before induction of expression with 1 mM IPTG. Incubation at 16 °C was continued overnight.
(§4) The cultures were harvested by centrifugation at 4000×g at 4 °C for 30 min, the supernatant removed and the pellet stored at −80 °C for in excess of 1 h. The PKGs were purified via the histidine tag on HiTrap TALON (cobalt) columns (GE Healthcare) connected to an AKTA-FPLC as per the manufacturer's instruction. Fractions were analyzed by SDS-PAGE and the main peak concentrated on 10 kDa MWCO concentrators (Amicon). Purified proteins were stored in 50% glycerol at −80 °C in single use aliquots. The final buffer composition of the purified product was: 50 mM Tris/HCl pH 7.5, 0.1 mM EGTA, 150 mM NaCl, 0.1% β-mercaptoethanol, 50% glycerol, 0.03% Brij-35, 1 mM benzamidine and 0.2 mM PMSF.
(§5) IC50 values were determined for test compounds using a microfluidic mobility shift assay. Briefly, compounds were prepared over a 10-well ½ log dilution series in dimethyl sulfoxide (DMSO) in duplicate in 50 μl volumes using 384-well polypropylene U-bottomed plates (Thermo Scientific, UK). The plates contained positive/no inhibitor (DMSO only) and negative (no enzyme) controls in columns 1, 2, and 23, 24. […] Samples were pre-incubated at room temperature for 30 min and reactions were initiated by addition of 25 μl ATP mix (10 mM MgCl2 and ATP, at KM of the enzyme under test [20 µM PfPKG and 90 µM PfPKG T618Q], in water). Positive controls were complete reaction mixtures with 10% DMSO and negative controls were reaction mixtures with 10% DMSO but lacking enzyme. Reactions were allowed to proceed for 30 mins at room temperature, corresponding to conversion of approximately 10% of the substrate in the DMSO controls. Reactions were terminated by addition of 50 µl stop solution (25 mM EDTA in water). Samples were analyzed by electrophoretic separation of substrate and product peaks and fluorescence detection using a Caliper Lab Chip EZ reader. (Perkin Elmer, Waltham MA) with 0.2 s sip time, downstream voltage 500 V, upstream voltage 1950 V and pressure 0.5 to 1.5 psi. Substrate and product peak heights were measured and the ratio of the product peak height divided by the sum of the product and substrate peaks were determined using EZ reader software (version 3.0.265.0) to obtain percentage conversion (P) values. […] Liquid handling stages were conducted on a Biomek robotic liquid handler (Beckman Coulter).

HepG2 cells = assay: Cytotoxicity assay using HepG2 cells
Procedure: as §1, §2

[4] = Stability in human liver microsomes
Procedure: as §1, §2

PfPKG T618Q = PfPKG T618Q (Plasmodium falciparum, UniProt Q8I719, T618Q); assay: Microfluidic mobility shift kinase assay, recombinant PfPKG T618Q gatekeeper mutant; conditions: read-out: IC50 T618Q; recombinant PfPKG T618Q; ATP at KM (90 µM); +/- s.e.m.
Chain of PfPKG T618Q (Q8I719 whole entry T618Q): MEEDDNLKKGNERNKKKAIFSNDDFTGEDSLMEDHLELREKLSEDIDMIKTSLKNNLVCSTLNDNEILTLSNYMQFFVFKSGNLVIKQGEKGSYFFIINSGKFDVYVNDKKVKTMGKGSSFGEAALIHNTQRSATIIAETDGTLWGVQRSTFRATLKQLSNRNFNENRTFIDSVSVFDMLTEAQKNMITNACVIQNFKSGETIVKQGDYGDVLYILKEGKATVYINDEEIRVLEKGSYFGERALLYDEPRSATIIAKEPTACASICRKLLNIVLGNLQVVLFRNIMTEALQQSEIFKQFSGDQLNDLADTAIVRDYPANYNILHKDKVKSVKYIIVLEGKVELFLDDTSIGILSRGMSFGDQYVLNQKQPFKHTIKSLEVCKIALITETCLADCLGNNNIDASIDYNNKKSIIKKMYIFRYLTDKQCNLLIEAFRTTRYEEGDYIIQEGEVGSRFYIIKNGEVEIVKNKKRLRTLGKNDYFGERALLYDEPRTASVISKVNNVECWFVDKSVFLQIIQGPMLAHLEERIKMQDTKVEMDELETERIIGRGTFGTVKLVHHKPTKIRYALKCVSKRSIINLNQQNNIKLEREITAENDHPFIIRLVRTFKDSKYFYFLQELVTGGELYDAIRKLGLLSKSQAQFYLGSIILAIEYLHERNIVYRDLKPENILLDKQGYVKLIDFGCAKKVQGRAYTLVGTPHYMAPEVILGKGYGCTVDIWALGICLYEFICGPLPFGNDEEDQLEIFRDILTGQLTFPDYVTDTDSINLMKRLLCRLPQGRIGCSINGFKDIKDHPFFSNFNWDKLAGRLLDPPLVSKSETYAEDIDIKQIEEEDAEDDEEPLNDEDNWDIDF
Procedure: as §3, §4, §5

[5] = tested on: P. falciparum (NF54) gametocytes; assay: Standard membrane feeding assay (SMFA), gametocytes fed to Anopheles stephensi; format: cell-based, Plasmodium falciparum; conditions: gametocytes pre-incubated 24 h, oocysts counted day 7 post-feed; read-out: IC50 for reduction of the intensity of infection (oocysts)
Procedure: Mature P. falciparum (NF54) gametocytes (14 day culture, 0.3–0.5% gametocytes, 2% haematocrit) were obtained from an automated tipper system and incubated with compound for 24 h as previously described. Anopheles stephensi (Sind-Kasur Nijmegen strain[39] were reared at 30 °C and 70–80% humidity, while exposed to a 12/12 h day/night cycle. On the day of feeding, the gametocyte culture was adjusted to 50% hematocrit with human red blood cells and human serum and fed to 3–5 day old mosquitoes using a glass membrane mini-feeder system containing 0.35 ml of the P. falciparum culture/compound mix[40]. Unfed and partially fed mosquitoes were removed after feeding and blood fed females were maintained at 26 °C and 70–80% humidity. Up to 20 surviving mosquitoes were collected on day 7 post-infection and oocysts were visualized using a 1% merchurochrome solution and quantified by microscopy. IC50 values were determined by logistic regression using Maximum Likelihood Estimation to find best fit[41].

P. chabaudi (AS) = assay: Synchronous P. chabaudi AS model in BALB/c mice; format: in vivo, Plasmodium chabaudi; conditions: single daily oral dose 50 mg/kg just prior to schizogony, 4 days
Procedure: Similar experiments were performed using P. chabaudi AS (from David Walliker, University of Edinburgh) with the following modifications. To allow dosing to be carried out more conveniently during the day, reversal of the light/dark exposure of mice for 2 weeks prior to the experiment was used to switch schizogony from midnight to noon each day. Mice were dosed at different time points in an attempt to have maximal coverage at the point of schizogony. All animal work protocols carried out at LSHTM were approved and licensed by the United Kingdom Home Office as governed by law under the Animals (Scientific Procedures) Act of 1986, in strict accordance with the Code of Practice Part 1 for the housing and care of animals (21 March 2005), available at http://www.homeoffice.gov.uk/science-research/animal-research/

[6] = Plasma levels in satellite groups of mice, P. berghei experiment; format: in vivo, mouse; conditions: mice, oral 25 mg/kg, P. berghei experiment
Text: Supplementary Figure 4. Plasma concentrations over time in rodent malaria models. […] Error bars show the standard deviation. (1 picture or pasted object on this page, not shown here)

[7] = 3D7 asexual blood stage growth, 72 h, +/- s.e.m.
[8] = Plasmodium falciparum, 3D7, 72 h, 3D7 asexual blood stage growth, 72 h, +/- s.e.m.

| Compound | EC50 (P. falciparum 3D7; Plasmodium falciparum, 3D7, 72 h) | sensitivity of gatekeeper mutant line compared with wild type (control drugs) [1] | PAMPA [2] | EC90 (P. falciparum 3D7; [7]) | EC50 (P. falciparum 3D7; [7]) | mLogD (physchem) | mlm (%rem) ([3]; mouse, microsomes, 0.5 h) | IC50 (PfPKG) | EC50 [1] | EC90 [1] | IC50 (HepG2 cells) | hlm (%rem) ([4]; human, microsomes, 40 min) | IC50 (PfPKG T618Q) | IC50 [5] | reduction in blood stage parasitaemia (P. chabaudi (AS)) | plasma half-life [6] | EC50 (P. falciparum 3D7; [8]) | mlm (%rem) ([3]; % of compound remaining after 30 minutes' incubation) | IC50 (HepG2 cells; read-out: HepG2 (IC50 M), cytotoxicity) | hlm (%rem) ([4]; % of compound remaining after 40 minutes' incubation) |
| --- | --- | --- | --- | --- | --- | --- | --- | --- | --- | --- | --- | --- | --- | --- | --- | --- | --- | --- | --- | --- |
| CCN(CC)CCCC(C)Nc1ccnc2cc(Cl)ccc12 (centres unmarked) [Chloroquine, reference compound] | 16.2 ± 1.2 nM | equivalent levels of inhibition of both parasite lines | – | – | – | – | – | – | – | – | – | – | – | – | – | – | – | – | – | – |
| CN(C)Cc1ccn2c(-c3ccnc(N)n3)c(-c3cccc(S(C)(=O)=O)c3)nc2c1 [ML5] | – | – | 1.77 ×10⁻⁶ cm/s | 445 nM | 329 nM | 1.5 | 96% | 0.88 nM | 12700 nM | 61500 nM | > 20000 nM | 96% | > 100000 nM | – | – | – | – | – | – | – |
| Cc1cn2c(-c3ccnc(Nc4ccc(N5CCNCC5)cc4)n3)c(-c3ccc(F)cc3)nc2cc1CN(C)C [ML4] | – | – | 3.71 ×10⁻⁶ cm/s | 107 nM | 25.3 nM | 2.8 | 84% | 0.45 nM | 107 nM | 186 nM | 1900 nM | 31% | 231 nM | 61.6 nM | 56.5% | 1.0 h | – | – | – | – |
| CN(C)Cc1ccn2c(-c3ccnc(N)n3)c(-c3cccc(NS(C)(=O)=O)c3)nc2c1 [ML7] | – | – | 0.64 ×10⁻⁶ cm/s | 633 nM | 489 nM | 1.6 | 96% | 4.34 nM | 35100 nM | 60700 nM | > 20000 nM | 82% | > 100000 nM | – | – | – | – | – | – | – |
| Cc1cn2c(-c3ccnc(N)n3)c(-c3ccc(F)c(NS(C)(=O)=O)c3)nc2cc1CN(C)C [ML9] | – | – | 1.08 ×10⁻⁶ cm/s | 158 nM | 105 nM | 1.6 | 81% | 1.19 nM | 6900 nM | 48300 nM | – | 86% | > 100000 nM | – | – | – | – | – | – | – |
| Fc1ccc(-c2nc3ccccn3c2-c2ccnc(Nc3ccc(N4CCNCC4)cc3)n2)cc1 [ML2] | – | – | 0 ×10⁻⁶ cm/s | 628 nM | 197 nM | 3.1 | 100% | 1.71 nM | 140 nM | 956 nM | – | 100% | 1710 nM | – | – | – | – | – | – | – |
| CN(C)Cc1ccn2c(-c3ccnc(N)n3)c(-c3ccc(F)c(NS(C)(=O)=O)c3)nc2c1 [ML8] | – | – | 0.2 ×10⁻⁶ cm/s | 182 nM | 148 nM | 0.8 | 97% | 0.79 nM | 5570 nM | 31000 nM | > 20000 nM | 91% | 73700 nM | – | – | – | – | – | – | – |
| CN(C)Cc1ccn2c(-c3ccnc(NCC4CC4)n3)c(-c3cccc(S(C)(=O)=O)c3)nc2c1 [ML6] | – | – | 11.45 ×10⁻⁶ cm/s | 142 nM | 102 nM | 2.3 | 62% | 0.13 nM | 1860 nM | 3490 nM | > 20000 nM | 72% | 52500 nM | – | – | – | – | – | – | – |
| C[C@@H]1CC[C@H]2[C@@H](C)C(=O)O[C@@H]3O[C@@]4(C)CC[C@@H]1[C@]32OO4 [Artemisinin, reference compound] | – | equivalent levels of inhibition of both parasite lines | – | – | – | – | – | – | – | – | – | – | – | – | – | – | 25.2 ± 1.5 nM | – | – | – |
| CN(C)Cc1ccn2c(-c3ccnc(Nc4ccc(N5CCNCC5)cc4)n3)c(-c3ccc(F)cc3)nc2c1 [ML3] | – | – | 6.62 ×10⁻⁶ cm/s | 236 nM | 63.4 nM | 2.2 | – | 0.79 nM | 195 nM | 279 nM | – | – | 842 nM | – | – | – | – | 89% | 1900 nM | 62% |
| CCc1nc(N)nc(N)c1-c1ccc(Cl)cc1 [Pyrimethamine, reference compound] | – | resistant | – | – | – | – | – | – | – | – | – | – | – | – | – | – | 43.3 ± 5.9 nM | – | – | – |
